Data: patent publication US9763445B2, “Safened herbicidal compositions comprising a pyridine carboxylic acid herbicide” (Dow AgroSciences, LLC, priority 2014, dated 2017)

Key:
shepherd's purse (CAPBP) = experiment: Postemergence greenhouse trial, % visual injury on shepherd's purse; assay type: in vivo, Capsella bursa-pastoris
Procedure: (§1) Seeds of the desired test plant species were planted in Sun Gro MetroMix® 306 planting mixture, which typically has a pH of 6.0 to 6.8 and an organic matter content of about 30 percent, in plastic pots with a surface area of 103.2 square centimeters (cm^2). When required to ensure good germination and healthy plants, a fungicide treatment and/or other chemical or physical treatment was applied. The plants were grown for 7-36 days (d) in a greenhouse with an approximate 14-hour (h) photoperiod which was maintained at about 23° C. during the day and 22° C. during the night. Nutrients and water were added on a regular basis and supplemental lighting was provided with overhead metal halide 1000-Watt lamps as necessary. The plants were employed for testing when they reached the second or third true leaf stage.
(§2) Weighed amounts of technical material were dissolved in a volume of 97:3 volume per volume (v/v) acetone/dimethyl sulfoxide (DMSO) to stock solutions. […] The concentrated stock solutions were diluted with an aqueous mixture of 1.5% v/v of Agri-dex crop oil concentrate to provide the appropriate application rates. Compound requirements are based upon a 12 milliliter (mL) application volume at a rate of 187 liters per hectare (L/ha). Stocks solutions of the safeners were prepared following the same procedure. Spray solutions of the safeners and experimental compound mixtures were prepared by adding the stock solutions to the appropriate amount of dilution solution to form a 12 mL spray solution in two-way combinations. Formulated compounds were applied to the plant material with an overhead Mandel track sprayer equipped with 8002E nozzles calibrated to deliver 187 L/ha over an application area of 0.503 square meters (m^2) at a spray height of 18 inches (43 centimeters (cm)) above average plant canopy. Control plants were sprayed in the same manner with the solvent blank. All herbicide application (component a) rates are in g ae/ha and all safener (component b) rates are in g ai/ha.
(§3) The treated plants and control plants were placed in a greenhouse as described above and watered by sub-irrigation to prevent wash-off of the test compounds. After 20-22 d, the condition of the test plants as compared with that of the control plants was determined visually and scored on a scale of 0 to 100 percent where 0 corresponds to no injury and 100 corresponds to complete kill. The condition of the test plants was compared with that of the control plants as determined visually and scored on a scale of 0 to 100 percent, where 0 corresponds to no injury and 100 corresponds to complete kill. Colby's equation was used to determine the herbicidal effects expected from the mixtures.
(§4) The safener cloquintocet-mexyl was combined with compound 1, compound 2, compound 3, compound 7, compound 8, compound 9, compound 10, compound 11, compound 12, compound 13, compound 14, compound 15, compound 16, compound 17, compound 18, compound 19, and compound 20, and applied to spring wheat (TRZAS), winter wheat (TRZAW), and spring barley (HORVS) and the phytotoxicity of the herbicidal compositions was measured. […]

nutsedge (CYPES) = experiment: Postemergence greenhouse trial, % visual injury on nutsedge; assay type: in vivo, Cyperus esculentus; conditions: for % visual injury, observed (Ob): CYPES; for % visual injury, Ob: alone, 35 g/ha
Procedure: as §1, §2, §3
(§5) The safener cloquintocet-mexyl was combined with compound 1, compound 2, compound 4, compound 5, and compound 6, and applied to corn/maize (ZEAMX) and spring wheat (TRZAS) and the phytotoxicity of the herbicidal compositions was measured. In addition, the efficacy of the herbicidal composition on velvetleaf (ABUTH, Abutilon theophrasti), pigweed (AMARE, Amaranthus retroflexus), winter rape (BRSNW, Brassica napus), lambsquarters (CHEAL, Chenopodium album), thistle (CIRAR, Cirsium arvense), nutsedge (CYPES, Cyperus esculentus), poinsettia (EPHHL, Euphorbia heterophylla), wild buckwheat (POLCO, Polygonum convolvulus), giant foxtail (SETFA, Setaria faberi), and chickweed (STEME, Stellaria media) was evaluated. […]
The safener cloquintocet-acid and a number of agriculturally acceptable esters and salts (-mexyl, -dimethylammonium salt and -triethylammonium salt) were combined in varying ratios with compound 1 and applied to spring wheat (TRZAS), winter wheat (TRZAW), and spring barley (HORVS), and the phytotoxicity of the herbicidal compositions was measured. […]

chickweed (STEME) = experiment: Postemergence greenhouse trial, % visual injury on chickweed; assay type: in vivo, Stellaria media; conditions: for % visual injury, observed (Ob): STEME
Procedure: as §1, §2, §3, §5

prickly lettuce (LACSE) = experiment: Postemergence greenhouse trial, % visual injury on prickly lettuce; assay type: in vivo, Lactuca serriola
Procedure: as §1, §2
as §3, with “mixtures. […]” for “mixtures.”

wild buckwheat (POLCO) = experiment: Postemergence greenhouse trial, % visual injury on wild buckwheat; assay type: in vivo, Polygonum convolvulus; conditions: for % visual injury, Ob: alone, 35 g/ha; for % visual injury, observed (Ob): POLCO
Procedure: as §1, §2, §3
The safener cloquintocet-mexyl was combined with compound 1, compound 2, compound 4, compound 5, and compound 6, and applied to corn/maize (ZEAMX) and spring wheat (TRZAS) and the phytotoxicity of the herbicidal compositions was measured. In addition, the efficacy of the herbicidal composition on velvetleaf (ABUTH, Abutilon theophrasti), pigweed (AMARE, Amaranthus retroflexus), winter rape (BRSNW, Brassica napus), lambsquarters (CHEAL, Chenopodium album), thistle (CIRAR, Cirsium arvense), nutsedge (CYPES, Cyperus esculentus), poinsettia (EPHHL, Euphorbia heterophylla), wild buckwheat (POLCO, Polygonum convolvulus), giant foxtail (SETFA, Setaria faberi), and chickweed (STEME, Stellaria media) was evaluated.
as §4

corn/maize (ZEAMX) = experiment: Postemergence greenhouse trial, % visual injury on corn/maize; assay type: in vivo, Zea mays; conditions: for % visual injury, observed (Ob): ZEAMX; for % visual injury, Ob: alone, 35 g/ha
Procedure: as §1, §2, §3, §5

cleavers (GALAP) = experiment: Postemergence greenhouse trial, % visual injury on cleavers; assay type: in vivo, Galium aparine
Procedure: as §1, §2, §3, §4

wild chamomile (MATCH) = experiment: Postemergence greenhouse trial, % visual injury on wild chamomile; assay type: in vivo, Matricaria chamomilla
Procedure: as §1, §2
as §3, with “mixtures. […]” for “mixtures.”

[1] = compound 2 4.380 + CQC-m 0 g/ha

## Nc1c(F)c(-c2ccc3cc[nH]c3c2F)nc(C(=O)O)c1Cl [compound 1]
shepherd's purse (CAPBP); alone, 4.375 g/ha
  % visual injury, Ob: 70%
shepherd's purse (CAPBP); alone, 8.75 g/ha
  % visual injury, Ob: 100%
shepherd's purse (CAPBP); alone, 17.5 g/ha
  % visual injury, Ob: 100%
shepherd's purse (CAPBP); alone, 35 g/ha
  % visual injury, Ob: 100%
shepherd's purse (CAPBP); alone, 70 g/ha
  % visual injury, Ob: 100%
Nutsedge (CYPES); compound 1 alone 20 g/ha
  % visual injury, observed (Ob): 35%
Nutsedge (CYPES); compound 1 alone 40 g/ha
  % visual injury, observed (Ob): 35%
Nutsedge (CYPES)
  % visual injury, Ob: 80%
Chickweed (STEME); alone, 35 g/ha
  % visual injury, Ob: 100%
Prickly lettuce (LACSE); alone, 4.375 g/ha
  % visual injury, Ob: 70%
Prickly lettuce (LACSE); alone, 8.75 g/ha
  % visual injury, Ob: 93%
Prickly lettuce (LACSE); alone, 17.5 g/ha
  % visual injury, Ob: 100%
Prickly lettuce (LACSE); alone, 35 g/ha
  % visual injury, Ob: 100%
Prickly lettuce (LACSE); alone, 70 g/ha
  % visual injury, Ob: 100%
Wild buckwheat (POLCO)
  % visual injury, Ob: 99%
corn/maize (ZEAMX); compound 1 alone 20 g/ha
  % visual injury, observed (Ob): 3%
corn/maize (ZEAMX); compound 1 alone 40 g/ha
  % visual injury, observed (Ob): 30%
corn/maize (ZEAMX)
  % visual injury, Ob: 40%

## Nc1c(F)c(-c2ccc3cc[nH]c3c2F)nc(C(=O)OCc2ccccc2)c1Cl [compound 2]
Cleavers (GALAP); [1]
  % visual injury, observed (Ob): 20%
Cleavers (GALAP); compound 2 8.75 + CQC-m 0 g/ha
  % visual injury, observed (Ob): 30%
Cleavers (GALAP); compound 2 17.5 + CQC-m 0 g/ha
  % visual injury, observed (Ob): 93%
Cleavers (GALAP); compound 2 35 + CQC-m 0 g/ha
  % visual injury, observed (Ob): 85%
Cleavers (GALAP); compound 2 70 + CQC-m 0 g/ha
  % visual injury, observed (Ob): 97%
Nutsedge (CYPES)
  % visual injury, Ob: 30%
Chickweed (STEME); [1]
  % visual injury, observed (Ob): 25%
Chickweed (STEME); compound 2 8.75 + CQC-m 0 g/ha
  % visual injury, observed (Ob): 68%
Chickweed (STEME); compound 2 17.5 + CQC-m 0 g/ha
  % visual injury, observed (Ob): 97%
Chickweed (STEME); compound 2 35 + CQC-m 0 g/ha
  % visual injury, observed (Ob): 100%
Chickweed (STEME); compound 2 70 + CQC-m 0 g/ha
  % visual injury, observed (Ob): 100%
Prickly lettuce (LACSE); LACSE, compound 2 4.380 + CQC-m 0 g/ha
  % visual injury, observed (Ob): 40%
Prickly lettuce (LACSE); LACSE, compound 2 8.75 + CQC-m 0 g/ha
  % visual injury, observed (Ob): 99%
Prickly lettuce (LACSE); LACSE, compound 2 17.5 + CQC-m 0 g/ha
  % visual injury, observed (Ob): 99%
Prickly lettuce (LACSE); LACSE, compound 2 35 + CQC-m 0 g/ha
  % visual injury, observed (Ob): 100%
Prickly lettuce (LACSE); LACSE, compound 2 70 + CQC-m 0 g/ha
  % visual injury, observed (Ob): 100%
Wild buckwheat (POLCO)
  % visual injury, Ob: 100%
corn/maize (ZEAMX)
  % visual injury, Ob: 35%
Wild chamomile (MATCH); [1]
  % visual injury, observed (Ob): 30%
Wild chamomile (MATCH); compound 2 8.75 + CQC-m 0 g/ha
  % visual injury, observed (Ob): 58%
Wild chamomile (MATCH); compound 2 17.5 + CQC-m 0 g/ha
  % visual injury, observed (Ob): 91%
Wild chamomile (MATCH); compound 2 35 + CQC-m 0 g/ha
  % visual injury, observed (Ob): 98%
Wild chamomile (MATCH); compound 2 70 + CQC-m 0 g/ha
  % visual injury, observed (Ob): 100%

## COC(=O)c1nc(-c2ccc3cc[nH]c3c2F)c(F)c(N)c1Cl [compound 8]
Wild buckwheat (POLCO); compound 8 4.380 + CQC-m 0 g/ha
  % visual injury, observed (Ob): 85%
Wild buckwheat (POLCO); compound 8 8.75 + CQC-m 0 g/ha
  % visual injury, observed (Ob): 97%
Wild buckwheat (POLCO); compound 8 17.5 + CQC-m 0 g/ha
  % visual injury, observed (Ob): 93%
Wild buckwheat (POLCO); compound 8 35 + CQC-m 0 g/ha
  % visual injury, observed (Ob): 100%
Wild buckwheat (POLCO); compound 8 70 + CQC-m 0 g/ha
  % visual injury, observed (Ob): 100%

## CO/C=N/c1c(F)c(-c2ccc3cc[nH]c3c2F)nc(C(=O)OC)c1Cl [compound 10]
shepherd's purse (CAPBP); CAPBP, compound 4.380 g/ha, CQC-m 0
  % visual injury, Ob: 30%
shepherd's purse (CAPBP); CAPBP, compound 17.5 g/ha, CQC-m 0
  % visual injury, Ob: 100%
shepherd's purse (CAPBP); CAPBP, compound 70 g/ha, CQC-m 0
  % visual injury, Ob: 100%
Prickly lettuce (LACSE); LACSE, compound 4.380 g/ha, CQC-m 0
  % visual injury, Ob: 95%
Prickly lettuce (LACSE); LACSE, compound 8.75 g/ha, CQC-m 0
  % visual injury, Ob: 100%
Prickly lettuce (LACSE); LACSE, compound 17.5 g/ha, CQC-m 0
  % visual injury, Ob: 100%
Prickly lettuce (LACSE); LACSE, compound 35 g/ha, CQC-m 0
  % visual injury, Ob: 100%
Prickly lettuce (LACSE); LACSE, compound 70 g/ha, CQC-m 0
  % visual injury, Ob: 100%
